Data: publication PMC10831786 (Virus Research, 2024)
Several values for one entry are separate records, joined by “and”; a condition that tells them apart may be missing. Equal values may be shown once. Where a name gives a salt, the structure may show the parent alone. Read-outs that look alike come from different tables or passages of the source.

What was measured:
[1] = system: protein synthesis in Vero E6 cells; assay: Puromycin pulse labeling, protein synthesis in cultured Vero E6 cells; type: cell-based, African green monkey; conditions: for IC50: Chlorocebus sabaeus
Procedure: Vero E6 cells were seeded at 30,000 cells per cm^2 in 6-well plates. […] Control experiments were conducted in medium alone and medium containing cycloheximide or DMSO. After 12 min, cells were washed with 37° PBS and then allowed to recover in drug-free 2 % FBS-EMEM for 30 min. Cell pellets, collected by trypsinization and centrifugation for 5 min at 5 000 rpm at 4 °C, were re-suspended in ice-cold PBS and centrifugation was repeated. Collected cells were stored at −80 °C.
Antibodies used were anti-puromycin monoclonal (TFS; MABE34), goat anti-mouse-HRP (TFS, Invitrogen; G21040), rabbit anti-β-actin (Cell Signaling, 4967S, lot 9) and HRP-conjugated goat-anti-rabbit (Cell Signaling, 7074S, lot 27). Protein extract and immunoblotting methods were done by standard methods reported here as Supplementary Information.
Vero E6 cells were seeded at 30,000 cells per cm^2 in 6-well plates. […] Puromycin labelling protocols have been well established by other laboratories and a general review of the methods has been published^79. Control experiments were conducted in medium alone and medium containing cycloheximide or DMSO. Following incubation with puromycin for 12 min, the medium was quickly removed and cells were washed with warm PBS and then allowed to recover in drug-free 2% FBS-EMEM for 30 min. Cell pellets, collected by trypsinization and centrifugation for 5 min at 5 000 rpm at 4°C, were re-suspended in ice-cold PBS and the centrifugation was repeated. Collected cells were stored at -80°C until subjected to the protein preparation as noted below.
Defrosted cell pellets were re-suspended in 120 µl of RIPA (radio-immunoprecipitation) buffer (Sigma; R0278) containing 7 µl of protease inhibitors (Sigma; P8340). Samples were incubated on ice for 40 min with occasional gentle mixing. Cell debris was removed by a 20 min centrifugation at 16,000 g at 4°C and supernatants were stored at -80°C. Protein was measured by the Pierce^TM bicinchoninic acid (BCA) assay (Thermo Fisher Scientific [TFS], MA, USA; 23250), using bovine serum albumin as a standard, according to protocols recommended by the manufacturer.
For immunoblotting, 10 µg of protein was combined with Laemmli buffer containing 10% β-mercaptoethanol, heated at 95°C for 5 min and loaded on 4-20% Mini-PROTEAN® TGX™ precast protein gels. Samples were resolved by electrophoresis in Tris-Gly-SDS buffer and transferred to nitrocellulose membranes. Transfer was conducted in Tris-Gly buffer containing 20% methanol at 4-6 V/cm^2 for one hour. Membranes were blocked in 10 mM sodium phosphate buffer containing 150 mM NaCl (pH 7.8), 5% milk and 0.1% TWEEN20 (PBST) at room temperature for at least one hour, and then incubated overnight with primary anti-puromycin antibodies (TFS; MABE343 mouse monoclonal antibodies clone 12D10; 1:12,500) at 4°C. Membranes were washed for five minutes three times in PBST and incubated with secondary goat anti-mouse horseradish peroxidase (HRP) -conjugated antibodies (TFS, Invitrogen; G21040; 1:25,000) for 90 min. After three more rounds of washing as above, membranes were incubated with an HRP substrate (TFS; 34077) for one minute and chemoluminescence was visualized by exposing membranes to film for 1, 2, 5, 10 and 30 min.
For β-actin staining, the same membranes used for puromycin immunostaining were washed four times, 5 min each, in 20 mM Tris-buffered saline containing 500 mM sodium chloride (pH 7.5) and 0.1% TWEEN20 (TBST) and stripped by two rounds of 20 and 10 min washes at 50°C in glycine buffer (pH 2.2) containing 0.1 % SDS (W/V) and 1% TWEEN20. Membranes were then washed at room temperature with PBS (3x10 min) and PBST (2x5min). Blocking, primary (1:4,000) and secondary (1:5,000) antibody staining was conducted as above. Primary rabbit anti-β-actin antibodies were obtained from Cell Signaling (4967S, lot 9) and secondary HRP-conjugated goat-anti-rabbit antibodies were from the same company (7074S, lot 27). […]

BEC-hACE2 cells = assay: Sulforhodamine B (SRB) assay in non-infected BEC-hACE2 cells; type: cell-based, human; conditions: for GI50 / SRB, TGI: BEC-hACE2, 24 h; for GI50: read-out: SRB, GI50
Procedure: Detailed methods are provided in Supplementary Information.
This method has been used by the National Cancer Institute to evaluate drug candidates for their activities as growth inhibitors and toxins in human cancer cell lines. NCI’s protocols for SRB assay were strictly followed^81, 82. On the day of exposure (Day 0), several wells of untreated cells were fixed by addition of trichloroacetic acid (TCA, 10% V/V) and incubated for one hour at 4°C. The supernatant was discarded, wells washed five times with tap water and then air-dried. Samples were stored at room temperature until cells exposed to ipecac alkaloids or DMSO for 24 h were fixed in a similar manner. For color development, 500 µl of 0.4% SRB reagent prepared in 1% acetic acid was added to fixed cells and samples were incubated at room temperature for 15 min with gentle rocking. Unbound dye was removed by five washes with 1% acetic acid and plates were air-dried. Trizma base (10 mM) was used to dissolve the stain and absorbance was measured at 515 nm using a spectrophotometer. By comparing absorption values obtained at day 0 to the signal at day 1, with and without drugs, this protocol permits distinguishing growth inhibition from toxicity of the test compounds.

[2] = biological target: protein synthesis in rabbit reticulocyte lysate; assay: Inhibition of protein synthesis in rabbit reticulocyte lysates (luciferase mRNA translation); type: biochemical
Procedure: The TnT® Quick Coupled Transcription/Translation System from Promega (WI, USA; L1170) was used to evaluate inhibitory effects of ipecac alkaloids and cycloheximide on protein synthesis. Assay conditions were employed as recommended by the manufacturer. Briefly, reactions (20 μl) contained 80 % TNT Quick master mix, 20 µM methionine, 40 ng/µL luciferase RNA (Promega; L4561), and test chemicals. Samples were incubated at 30 °C for 90 min and diluted 10-fold with PBS. An aliquot (2 μl) was mixed with 20 μl of luciferase assay reagent (Promega; E1500) and luminescence was measured with a Turner Designs luminometer (model TD-20/20).

[3] = Vero C1008, read-out: IC50, host protein synthesis
[4] = Vero C1008, Vero E6 cells, 1 h exposure, puromycin labeling, read-out: 50 % inhibitory activities, protein synthesis

Compound	IC50 [1, 3]	IC50 [1, 4]	Protein synthesis,% ([1]; Vero E6, 0.01 μM)	Protein synthesis,% ([1]; Vero E6, 0.1 μM)	Protein synthesis, puromycilation signal ([1]; Vero E6, > 10 μM)	Concentration above which inhibition of puromycilation is not sustained ([1]; Vero E6 cells)	GI50 (BEC-hACE2 cells)	GI50 (BEC-hACE2 cells; Homo sapiens, 24 h)	IC50 ([2]; luciferase mRNA, 30 °C, 90 min)	Protein synthesis,% ([1]; Vero E6, 0.01 μM, listed as EMT)	Protein synthesis,% ([1]; Vero E6, 0.03 μM)	Protein synthesis,% ([1]; Vero E6, 1 μM)	Protein synthesis,% ([1]; Vero E6, 1 μM, listed as EMT)	SRB, TGI (BEC-hACE2 cells)	SRB, TGI (BEC-hACE2 cells; listed as EMT)	GI50 (BEC-hACE2 cells; listed as EMT)	Protein synthesis, puromycilation signal ([1]; Vero E6, >1 μM)	SRB, nature of the effect (BEC-hACE2 cells; BEC-hACE2, at ∼200 μM)	Inhibitory effects on translation in rabbit reticulocyte lysate ([2]; concentration range 0.1 - 100 μM)	IC50, protein synthesis inhibition in rabbit reticulocyte lysate ([2]; luciferase mRNA, 30 °C, 90 min)
CCC1=C(C[C@H]2NCCc3cc(OC)c(OC)cc32)C[C@H]2c3cc(OC)c(OC)cc3CCN2C1 [DHE4, 4H-Benzo[a]quinolizine, 3-ethyl-1,6,7,11b-tetrahydro-9,10-dimethoxy-2-[[(1R)-1,2,3,4-tetrahydro-6,7-dimethoxy-1-isoquinolinyl]methyl]-, (11bS)-]	0.15 to 0.17 µM	~0.21 µM	15%	20%	signal increase	> 10 µM	0.062 ± 0.017 µM	0.06 µM	1.3 µM and 1.33 µM											
CC[C@H]1CN2CCc3cc(OC)c(OC)cc3[C@@H]2C[C@@H]1C[C@H]1NCCc2cc(OC)c(OC)cc21 [Emetine, 2H-Benzoaquinolizine, 3-ethyl-1,3,4,6,7,11b-hexahydro-9,10-dimethoxy-2-(1R)-1,2,3,4-tetrahydro-6,7-dimethoxy-1-isoquinolinylmethyl-, dihydrochloride, (2S,3R,11bS)-, reference compound]	0.15 to 0.17 µM	~0.11 µM		50%	signal increase	> 10 µM		0.11 µM	1.2 µM and 1.21 µM	20%	50%	terminating all translation activity	100%	0.25 to 0.5 µM	∼ 0.25–0.5 μM	0.112 ± 0.022 µM				
CC[C@H]1CN2CCc3cc(OC)c(OC)cc3[C@@H]2C[C@@H]1C[C@@H]1NCCc2cc(OC)c(OC)cc21.Cl.Cl [Isoemetine, 2H-Benzoaquinolizine, 3-ethyl-1,3,4,6,7,11b-hexahydro-9,10-dimethoxy-2-(1S)-1,2,3,4-tetrahydro-6,7-dimethoxy-1-isoquinolinylmethyl-, dihydrochloride, (2S,3R,11bS)-]				0%		> 1 µM	19.4 ± 3.86 µM							~200 µM			signal increase	toxic	no inhibitory effects	Not active
